Results from patent US20180256914A1, “COMPOSITIONS AND METHODS FOR THE TREATMENT OF MUCOSITIS ASSOCIATED WITH TREATMENT-INDUCED NEUTROPENIA” (KLOX TECHNOLOGIES INC., priority 2015, published 2018).

Legend:
P. aeruginosa = type: cell-based, Pseudomonas aeruginosa; conditions: Trolox at concentrations above 2 mM; data not shown
[1] = Neutralisation by Trolox of ROS produced by gel containing 12% urea peroxide; conditions: 2 mM Trolox; FIG. 2

In the case of Cc1c(C)c2c(c(C)c1O)CCC(C)(C(=O)O)O2 (centres unmarked) [Trolox], the “cytotoxicity to P. aeruginosa” value (P. aeruginosa) is reported as “not to be cytotoxic” and the “neutralization of ROS produced by the gel containing 12% urea peroxide” value [1] is reported as “neutralize the ROS”.
